From article PMC6112750 (Oncotarget, 2018)

Biological target: T1, SUV39H2 (Homo sapiens, UniProt Q9H5I1)
T1 construct: N-terminal GST fused SUV39H2
Assay: radiometric SPA methyltransferase assay with biotin-H3 ([…]-21) peptide and [3H]-SAM
Type: biochemical

T1 sequence (Q9H5I1 whole entry, the tested form may be a part): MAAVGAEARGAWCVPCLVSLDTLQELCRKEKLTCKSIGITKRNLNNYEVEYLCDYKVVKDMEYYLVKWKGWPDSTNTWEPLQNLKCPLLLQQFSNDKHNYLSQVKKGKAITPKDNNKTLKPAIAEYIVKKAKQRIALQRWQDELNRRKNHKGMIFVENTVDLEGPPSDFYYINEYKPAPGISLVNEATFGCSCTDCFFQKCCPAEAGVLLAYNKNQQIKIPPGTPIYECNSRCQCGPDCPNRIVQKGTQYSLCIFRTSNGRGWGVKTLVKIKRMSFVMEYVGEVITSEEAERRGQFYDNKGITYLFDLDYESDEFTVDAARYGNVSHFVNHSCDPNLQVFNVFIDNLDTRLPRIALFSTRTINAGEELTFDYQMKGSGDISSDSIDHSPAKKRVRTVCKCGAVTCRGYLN

IC50: 22.2 nM
SMILES: COc1cc(OC)c(-c2cn3ccc(N[C@H]4CC[C@@H](NCc5ccc([N+](=O)[O-])cc5)CC4)cc3n2)cc1Cl [OTS193320, (1s,4s)-N^1-(2-(5-chloro-2,4-dimethoxyphenyl)imidazo[1,2-a]pyridin-7-yl)-N^4-(4-nitrobenzyl)cyclohexane-1,4-diamine]
